According to a melting point compilation (Tetko et al.; mined from patent text by program, amines drawn as free bases though some values may be those of a salt):
Residues, ends and D or L forms follow the SMILES beside them. *: point of attachment. Boc = CC(C)(C)OC(=O)*

SMILES	melting point [°C]
CCCCN(c1cccc(-c2ccnc3c([N+](=O)[O-])cnn23)c1)S(=O)(=O)c1ccccc1	159 to 160
CCc1cccc2c3c([nH]c12)C(CC)(CC(C)=O)OCC3 (centres undefined)	154 to 155
O=C1NCCN1c1ccncc1	204 to 207
COC(=O)c1cccc2[nH]cc(CC[N+](=O)[O-])c12	103
Oc1ccc(-c2nn(-c3cc(Cl)ccc3Cl)c3cc(O)ccc23)c(O)c1	78 to 80
COc1cc2c(C)c(C#N)cnc2cc1OCc1cccnc1	206 to 210
Cc1ccccc1C(CCC(=O)NS(=O)(=O)c1ccccc1)Oc1cc(OCc2ccsc2)ccc1C#N (racemic)	68 to 70
CCOC(=O)CCCCCCCn1cnc(-c2ccc(O)cc2)c1-c1ccc(O)cc1	186 to 187
COC(=O)c1ccc(SCn2cc(I)cnc2=O)cc1	210
COc1ccc(CCNC[C@H](O)COc2ccc(-c3nc(C(C)=O)c[nH]3)cc2)cc1OC	138 to 142
C[N+]([O-])=CCC=Cc1ccccc1	85 to 86
Cc1ccc(-c2ccccc2)cc1C#N	71 to 73
O=C(Nc1ccccc1-c1ccc(Cl)cc1F)c1cccnc1Cl	124 to 126
CC(C)(C)C(=O)OC1CCC2C3(O)C=CC4=CC(=O)CCC4(CO)C3CCC12C (centres undefined)	201 to 203
Cc1ccnc2c1C(=O)CC(c1cc(F)ccc1F)C2 (centres undefined)	75 to 76
O=C1CCCCC1c1c[nH]c2ccccc12 (centres undefined)	122 to 124
CC(Oc1ncn(-c2ccc(C(F)(F)F)cc2)n1)C(=O)N(C)C (centres undefined)	102 to 104
CCn1c(C)c(C(=O)c2ccccc2C(=O)O)c2ccccc21	184 to 185
COc1cc2c(cc1O)C(OC)CN(Cc1cc(OC)c(OC)c(OC)c1)C2 (centres undefined)	51 to 54
N#Cc1c[nH]nc1-c1ccc([N+](=O)[O-])o1	238 to 239
COC(=O)c1cnc(N2CCN(Cc3ccccc3)CC2)nc1OC	135 to 138
c1ccc(Oc2ccc(OCc3nc(C4CC4)no3)cc2)cc1	99
CSc1cc(C(C)(C)C)c(O)c(C(C)(C)C)c1	69 to 71
COc1ccc2c(c1)C(c1ccncc1)=Nc1cc(Cl)ccc1O2	158 to 160
CCOC(=O)c1cc(NC(=O)C(Cc2ccccc2)NC(=O)OC(C)(C)C)c[nH]1 (centres undefined)	148 to 151

SMILES	melting point [°C]
COc1ccc(C2=NN(c3ccc(C(=O)O)cc3)C(=O)[C@H]3CC=CC[C@@H]23)cc1Cl (relative stereo)	222 to 224
COCc1c(CNS(=O)(=O)c2cccc(Cl)c2)nn(-c2ccc(Cl)cc2Cl)c1-c1ccc(Cl)cc1	154
O=C(NC1CCCC1)c1cc2ccncc2[nH]1	220 to 224
COc1c(C(C)(C)C)cc(P(c2cc(C(C)(C)C)c(OC)c(C(C)(C)C)c2)c2ccccc2P2c3ccccc3CC2C(C)C)cc1C(C)(C)C (single isomer, unassigned; (+))	69 to 70
COc1ccc(Cn2cc(OCc3ccccc3)c(=O)cc2C(=O)NCCNCc2ccccc2)cc1	112
COc1cc(C#N)ccc1C(Br)C(Br)C(=O)c1ccc(C#N)cc1 (centres undefined)	163 to 165
O=C(NCCSc1ccccc1)n1cc(F)c(=O)[nH]c1=O	130 to 133
CC(=O)Oc1ccc(Cl)nc1	45 to 47
COc1ccc(C2=CC(N3CCN(Cc4ccccc4)CC3)=NC23C=CC(=O)C=C3)cc1	190
CNC(=S)Nc1ncc(Cl)cc1Cl	105 to 109
O=C(c1ccc(-c2ccccc2)cc1)C(Br)CCCl (centres undefined)	85 to 88
CN(C(=O)CNc1nc(-c2ccccc2)ncc1N)c1ccccc1	183 to 184
O=c1[nH]c2ncc(-c3ccc(-c4n[nH]c(CN5CCOCC5)n4)cc3)nc2n1CC1CCOCC1	281 to 283
OCCOc1cccc2cnccc12	64 to 67
CC(C)n1c(=O)ccc2cnc(Nc3ccc(N4CCN(C)CC4)cc3)nc21	221 to 222
O=C(O)c1ccc(C#Cc2ccc(O)c(C34CC5CC(CC(C5)C3)C4)c2)cc1	254 to 255
CCS(=O)(=O)c1ccc2cc(C(=O)O)ccc2c1	241
CCOC(=O)c1nc(-c2ccccc2F)c(-c2ccc(=O)n(C(C)C)n2)s1	140 to 141
CCCCN1CC=C(c2c[nH]c3ccc(NS(C)(=O)=O)cc23)CC1	202 to 204
CCOC(=O)C1=C(N2CC2C(N)=O)CCCC1 (centres undefined)	101 to 104
Cn1ccc2cc(-c3ccc(S(=O)(=O)n4ccc(/C=C/C(=O)NO)c4)cc3)ccc21	177 to 179
CCOC(=O)c1cc(-c2ccc(OC)cc2)nn(CC=Cc2ccc(Cl)cc2)c1=O	127 to 128
O=[N+]([O-])c1ccc(NN=C(c2ccc(O)cc2O)c2ccc(O)cc2O)c([N+](=O)[O-])c1	240 to 242
CC(C)(C)c1ccc(-c2cc(Oc3ccc4[nH]ccc4c3)ncn2)cc1	143 to 145
CCNC(=O)C(c1ccccc1)N1CCN(c2ccc(NC(=O)c3ccccc3-c3ccc(C(F)(F)F)cc3)cc2)CC1 (centres undefined)	123

SMILES	melting point [°C]
O=C(O)C(Oc1ccccc1)c1ccc(Oc2ccc(Cl)cc2)cc1 (centres undefined)	114 to 116
NC(=O)c1cc(Oc2ccc3c(C(=O)Nc4cccc(C(F)(F)F)c4)cccc3c2)ccn1	117 to 120
CCCCOc1ccc2cc(O)ccc2c1	100 to 102
CCCNC(=O)N(C)C1CCN(c2ncnc3cc(OC)c(OC)cc23)CC1	209 to 211
CCCS(=O)(=O)Nc1c(C)cc(OC(=O)NC)cc1C	173 to 176
CCCCOC(=O)Nc1cccc(NC(=O)C=C(C)OC)c1	100
Cc1ccc(N2CCN(Cc3c[nH]c4ncccc34)CC2)nc1	204 to 205
CCn1c(=O)c2c(nc(/C=C/c3cc(OC)c(O)c(OC)c3)n2C)n(CC)c1=O	226
O=C1C(=CO)Cc2ccccc21	112 to 113
COC(=O)c1cc(CCc2cc(OC)ccc2OC)ccc1NC(C)=O	81 to 83
COc1ccc(-c2c(C(=O)Cl)sc3ccccc23)cc1OC	113
CN(CCO)Cc1ccc2c(c1)c(=O)c(C(=O)NCc1ccc(Cl)cc1)cn2C	130 to 131
O=C(O)CCc1cnoc1-c1ccc(Cl)s1	138 to 139
COc1ccc2sc(C(N)=O)c(Sc3ccccc3)c2c1	194 to 196
O=C1OC(=O)c2c1cccc2N1C(=O)CCCC1=O	234 to 236
CC(C)CC(=O)Nc1cccc(-c2ccnc3c(-c4ccc(Oc5ccccc5)cc4)cnn23)c1	175 to 178
CC(C)CC(NC(=O)C(Cc1ccc(O)cc1)NC(=O)OC(C)(C)C)C(=O)NCC(=O)O (stereo not drawn) (Boc-Tyr-Leu-Gly-OH; configuration not given here)	189 to 190
Clc1ccc(-n2ncc3c2-c2ccccc2C3)cc1	128 to 129
O=C(CCn1cnc2c(=O)[nH]cnc21)NCCCN1CCOCC1	145 to 148
COc1ccc(N2CCN(c3c(C)c(C)c4c(c3C)C(O)(c3cccc(C)c3)C(C)(C)O4)CC2)cc1 (centres undefined)	122 to 125
CC(=O)N1CC(C)C(=O)N(C(C)=O)C1=O (centres undefined)	130 to 131
COc1ccc(CN2CCC(N3Cc4cc(Cl)c(S(N)(=O)=O)cc4C3=O)CC2)cc1	207 to 210
CSCCC(=O)Nc1cc(-c2c(-c3ccc(F)c(C)c3)nc3cccnn23)ccn1	158 to 159
O=S(=O)(CCCCCl)c1ccccc1	55 to 58
Cc1nc2n(c(=O)c1CCN1CCC(c3c[nH]c4ccccc34)CC1)CCCS2	227

SMILES	melting point [°C]
CC(=O)N1CCC2(CC1)CN=C(c1cc3cccc(N(C)S(=O)(=O)c4cccs4)c3[nH]1)S2	216 to 218
CN(C)C(=O)c1nc(-c2ccccc2)nc2c1c1cc(Cl)ccc1n2C	222 to 224
O=C(c1ccc(-c2ccncc2)cc1)N1CCN(S(=O)(=O)c2nc3ccc(Cl)cc3[nH]2)CC1	242 to 244
CCC(Oc1ccccc1OC)C(=O)OC1CC(O)C=C2C=CC(C)C(CCC3CC(O)CC(=O)O3)C21 (mixture of isomers)	116 to 117
O=C(O)CC1(c2cccc(F)c2)NC(=O)NC1=O (centres undefined)	206 to 208
COC(=O)N[C@@H]1CCc2ccc(Br)cc2C1=O	111 to 112
Clc1cc2nc(NCCCN3CCOCC3)c(-c3ccccn3)nc2cc1Cl	119 to 121
CCOC(=O)CNCc1cc(I)ccc1N	58 to 61
Cc1ccc(OCCCCCNc2cccc3c2C(=O)c2cccc4[nH]nc-3c24)cc1	122 to 125
N#Cc1c[nH]c(C(F)(F)F)c1-c1ccc(Cl)cc1	114 to 115
CC(=O)NCCC(=O)NCCO	122 to 125
CN1CCC(=C2c3ccccc3C=Cc3ccc(I)cc32)CC1	166 to 170
ClCCCCOc1ccccc1/C=C/c1nc2ccccc2s1	98 to 100
COc1ccc2nccc(NC(=O)N3CCN(CCc4ccc5c(c4)NC(=O)CS5)CC3)c2n1	248 to 250
CC(COc1ccc(Oc2ccccc2)cc1)=NO	59 to 61
C=C(CCC(C)C1CCC2C3=C(C(=O)CC21C)C1(C)CCC(=O)C(C)C1CC3O)C(C)C(=O)OC (centres undefined)	100 to 101
CNCC(O)c1cccn1C (centres undefined)	64 to 66
COC(=O)c1nc(-c2ccc([Si](C)(C)C)c(F)c2F)c(F)c(N)c1OC	123 to 125
O=C(c1ccccc1)c1ccc(N2CCN(c3ccncc3)CC2)cc1	136 to 137
O=C1Nc2ccccc2N2CCc3cc(Cl)cc1c32	232 to 233
CCCCc1oc2ccccc2c1C(=O)NCc1ccc2c(-c3ccc(Cl)cc3)c(OCC#N)ccc2c1	154 to 158
CCN(CC)C(=O)COC(=O)c1cccc(NC(=O)C(CS)Cc2ccccc2)c1 (centres undefined)	160 to 163
NNc1nccc(-c2ccccc2)n1	116 to 118
C=CCOC(=O)CCC(NC(=O)OCC1c2ccccc2-c2ccccc21)C(=O)OCc1ccccc1 (centres undefined)	66.2 to 67.1
